In ChEMBL document CHEMBL1158461, “The role of amphiphilicity and negative charge in glycoprotein 41 interactions in the hydrophobic pocket” (J Med Chem, 2009) one finds CMC and Ki data, which are given here for 15 compounds.

The first data set can be described thus: Critical micellar concentration of the compound.
On to `CCCCCCCCCCS(=O)(=O)[O-].[Na+]`, for which the CMC was determined as 25000 µM.
Consider `CCCCCCCCS(=O)(=O)[O-].[Na+]`, for which the CMC was above 250000 µM.
Same read-out and setting: under `CCCCCCCCCCCCCCCCS(=O)(=O)[O-].[Na+]` stands “<= 100 uM”; under `CCCCCCCCCCCCCCS(=O)(=O)[O-].[Na+]`, 600 µM; under `CCCCCCCCCCCCS(=O)(=O)[O-].[Na+]`, 5000 µM.
Still for that read-out and setting: next, `CCCCCCCC(=O)[O-].[Na+]` [SODIUM CAPRYLATE]: 200000 µM; `CCCCCCCCCCOS(=O)(=O)[O-].[Na+]` [SODIUM DECYL SULFATE]: 15000 µM; `CCCCCCCCCCCC(=O)[O-].[Na+]` [SODIUM DODECANOATE]: 2500 µM.
On the same count and under the same terms, under `CCCCCCCCCCCCOS(=O)(=O)[O-].[Na+]` [SODIUM LAURYL SULFATE] stands 2000 µM; under `CCCCCCCCCCCCCCCCCCOS(=O)(=O)[O-].[Na+]` [SODIUM OCTADECYL SULFATE], below 100 µM; under `CCCCCCCCOS(=O)(=O)[O-].[Na+]` [SODIUM OCTYL SULFATE], 30000 µM.
`CCCCC(CC)CCC(CC(C)C)OS(=O)(=O)[O-].[Na+]` (stereo not given) [SODIUM TETRADECYL SULFATE] had a CMC of 150 µM.
Turning to `CCCCCCCCCCCCCOS(=O)(=O)[O-].[Na+]` [SODIUM TRIDECYL SULFATE], the CMC stood at 600 µM.

A short description of a further data set: Displacement of C27-Aib-lucifer yellow from HIV1 envelope glycoprotein gp41 Fe(env3.0)3 receptor by fluorescence assay. Further details: species or system Human immunodeficiency virus 1.
`CC[C@@H](C)[C@H](NC(=O)[C@H](CCC(=O)O)NC(=O)[C@H](CCCNC(=N)N)NC(=O)[C@H](CC(=O)O)NC(=O)[C@H](Cc1c[nH]c2ccccc12)NC(=O)[C@H](CCC(=O)O)NC(=O)C(C)(C)NC(=O)[C@H](Cc1c[nH]c2ccccc12)NC(=O)[C@@H](NC(=O)[C@@H](NC(=O)[C@H](Cc1cnc[nH]1)NC(=O)[C@H](CC(N)=O)NC(=O)[C@H](Cc1c[nH]c2ccccc12)NC(=O)C(C)(C)NC(=O)[C@H](CCC(N)=O)NC(=O)[C@H](CCC(=O)O)NC(=O)[C@H](CC(C)C)NC(=O)[C@H](CO)NC(=O)[C@H](CCCCN)NC(C)=O)[C@@H](C)O)[C@@H](C)O)C(=O)NC(C)(C)C(=O)N[C@@H](CC(N)=O)C(=O)N[C@@H](Cc1ccc(O)cc1)C(=O)N[C@H](C(=O)N[C@@H](CO)C(=O)N[C@@H](CC(C)C)C(=O)N[C@H](C(=O)N[C@@H](CS)C(N)=O)[C@@H](C)CC)[C@@H](C)O` displayed a Ki of 1.2 µM.

A further data set is described as follows: Displacement of C32-Aib-fluorescein from HIV1 envelope glycoprotein gp41 Fe(env5.0)3 receptor by fluorescence assay. Further details: species or system Human immunodeficiency virus 1.
In turn, `CC[C@H](C)[C@H](NC(=O)[C@H](C)NC(=O)[C@H](CCCNC(=N)N)NC(=O)[C@H](CC(=O)O)NC(=O)[C@H](Cc1c[nH]c2ccccc12)NC(=O)[C@H](C)NC(=O)[C@H](CCC(=O)O)NC(=O)[C@H](Cc1c[nH]c2ccccc12)NC(=O)[C@@H](NC(=O)[C@@H](NC(C)=O)[C@H](C)O)[C@H](C)O)C(=O)N[C@@H](C)C(=O)N[C@@H](CCC(=O)O)C(=O)N[C@@H](Cc1ccc(O)cc1)C(=O)N[C@@H](C)C(=O)N[C@@H](C)C(=O)N[C@@H](CCCNC(=N)N)C(=O)N[C@H](C(=O)N[C@@H](CCC(=O)O)C(=O)N[C@@H](C)C(=O)N[C@@H](CC(C)C)C(=O)N[C@H](C(=O)N[C@@H](CCCNC(=N)N)C(=O)N[C@@H](C)C(=O)N[C@@H](C)C(=O)N[C@@H](CCC(N)=O)C(=O)N[C@@H](CCC(=O)O)C(=O)N[C@@H](CCC(N)=O)C(=O)N[C@@H](CCC(N)=O)C(=O)N[C@@H](CCC(=O)O)C(=O)N[C@@H](CCCCN)C(=O)N[C@@H](CC(N)=O)C(=O)N[C@@H](CS)C(N)=O)[C@@H](C)CC)[C@@H](C)CC` displayed a Ki of 0.007 µM.
